From the supplement of paper PMC10307832

What was measured:
Assay in all cases: relative viability (nuclei count vs DMSO), 5 days (fraction); higher = more cells survive
NCI-H647 = tested on: NCI-H647
Procedure, shortened: (§1)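 After 5 days of treatment, lung cancer cells in 1536-well plates were fixed and stained in a single step (final 0.05% Triton X-100, 1% formaldehyde, 1 ug/ml Hoechst) and their nuclei counted on 4× images. Treatment had been applied by pin tool the day after seeding as one drug alone or as a fixed anchor-drug dose with five library-drug doses (not always all listed) in √10 steps. Relative viability is the nuclei count of treated wells divided by that of vehicle wells, and values are medians of duplicate plates.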

EPLC-272H = tested on: EPLC-272H
Procedure, shortened: as §1

SW 1573 = tested on: SW 1573
Procedure, shortened: as §1

LCLC-97TM1 = tested on: LCLC-97TM1
Procedure, shortened: as §1

PC-3 [JPC-3] = tested on: PC-3 [JPC-3]
Procedure, shortened: as §1

HCC-44 = tested on: HCC-44
Procedure, shortened: as §1

H3255 = tested on: H3255
Procedure, shortened: as §1

BEN = tested on: BEN
Procedure, shortened: as §1

NCI-H650 = tested on: NCI-H650
Procedure, shortened: as §1

201T = tested on: 201T
Procedure, shortened: as §1

NCI-H2170 = tested on: NCI-H2170
Procedure, shortened: as §1

NCI-H2085 = tested on: NCI-H2085
Procedure, shortened: as §1

NCI-H1437 = tested on: NCI-H1437
Procedure, shortened: as §1

NCI-H2342 = tested on: NCI-H2342
Procedure, shortened: as §1

NCI-H2087 = tested on: NCI-H2087
Procedure, shortened: as §1

LU99A = tested on: LU99A
Procedure, shortened: as §1

NCI-H1975 = tested on: NCI-H1975
Procedure, shortened: as §1

HCC-827 = tested on: HCC-827
Procedure, shortened: as §1

COR-L 105 = tested on: COR-L 105
Procedure, shortened: as §1

EKVX = tested on: EKVX
Procedure, shortened: as §1

NCI-H1666 = tested on: NCI-H1666
Procedure, shortened: as §1

LOU-NH91 = tested on: LOU-NH91
Procedure, shortened: as §1

SMILES: CCN(CC)CCCCNc1ncc2cc(-c3cc(OC)cc(OC)c3)c(NC(=O)NC(C)(C)C)nc2n1 + O=C(CCCCCCC(=O)Nc1ccccc1)NO [Vorinostat] (partner 1 µM)
- relative viability (NCI-H647; first compound 0.01 µM): 0.525
- relative viability (NCI-H647; first compound 0.03162 µM): 0.645
- relative viability (NCI-H647; first compound 0.1 µM): 0.582
- relative viability (NCI-H647; first compound 0.3162 µM): 0.511
- relative viability (NCI-H647; first compound 1 µM): 0.491
- relative viability (EPLC-272H; first compound 0.01 µM): 0.4
- relative viability (EPLC-272H; first compound 0.03162 µM): 0.537
- relative viability (EPLC-272H; first compound 0.1 µM): 0.277
- relative viability (EPLC-272H; first compound 0.3162 µM): 0.493
- relative viability (EPLC-272H; first compound 1 µM): 0.335
- relative viability (SW 1573; first compound 0.01 µM): 0.79
- relative viability (SW 1573; first compound 0.03162 µM): 0.959
- relative viability (SW 1573; first compound 0.1 µM): 0.952
- relative viability (SW 1573; first compound 0.3162 µM): 0.707
- relative viability (SW 1573; first compound 1 µM): 0.705
- relative viability (LCLC-97TM1; first compound 0.01 µM): 0.805
- relative viability (LCLC-97TM1; first compound 0.03162 µM): 0.779
- relative viability (LCLC-97TM1; first compound 0.1 µM): 0.615
- relative viability (LCLC-97TM1; first compound 0.3162 µM): 0.865
- relative viability (LCLC-97TM1; first compound 1 µM): 0.699
- relative viability (PC-3 [JPC-3]; first compound 0.03162 µM): 0.659
- relative viability (PC-3 [JPC-3]; first compound 0.1 µM): 0.937
- relative viability (PC-3 [JPC-3]; first compound 0.3162 µM): 1.18
- relative viability (PC-3 [JPC-3]; first compound 1 µM): 0.698
- relative viability (HCC-44; first compound 0.01 µM): 1.11
- relative viability (HCC-44; first compound 0.03162 µM): 1.08
- relative viability (HCC-44; first compound 0.1 µM): 1.16
- relative viability (HCC-44; first compound 0.3162 µM): 1.08
- relative viability (HCC-44; first compound 1 µM): 1.15
- relative viability (H3255; first compound 0.01 µM): 0.702
- relative viability (H3255; first compound 0.1 µM): 0.946
- relative viability (H3255; first compound 0.3162 µM): 1.02
- relative viability (H3255; first compound 1 µM): 0.785
- relative viability (BEN; first compound 0.01 µM): 0.617
- relative viability (BEN; first compound 0.03162 µM): 0.547
- relative viability (BEN; first compound 0.1 µM): 0.579
- relative viability (BEN; first compound 0.3162 µM): 0.544
- relative viability (BEN; first compound 1 µM): 0.546
- relative viability (NCI-H650; first compound 0.01 µM): 0.349
- relative viability (NCI-H650; first compound 0.03162 µM): 0.433
- relative viability (NCI-H650; first compound 0.1 µM): 0.498
- relative viability (NCI-H650; first compound 0.3162 µM): 0.525
- relative viability (NCI-H650; first compound 1 µM): 0.422
- relative viability (201T; first compound 0.01 µM): 1
- relative viability (201T; first compound 0.03162 µM): 1.03
- relative viability (201T; first compound 0.1 µM): 0.973
- relative viability (201T; first compound 0.3162 µM): 0.981
- relative viability (201T; first compound 1 µM): 0.887
- relative viability (NCI-H2170; first compound 0.01 µM): 0.782
- relative viability (NCI-H2170; first compound 0.03162 µM): 0.92
- relative viability (NCI-H2170; first compound 0.1 µM): 0.983
- relative viability (NCI-H2170; first compound 0.3162 µM): 0.969
- relative viability (NCI-H2170; first compound 1 µM): 0.776
- relative viability (NCI-H2085; first compound 0.01 µM): 0.782
- relative viability (NCI-H2085; first compound 0.03162 µM): 0.8
- relative viability (NCI-H2085; first compound 0.1 µM): 0.935
- relative viability (NCI-H2085; first compound 0.3162 µM): 0.858
- relative viability (NCI-H2085; first compound 1 µM): 0.793
- relative viability (NCI-H1437; first compound 0.01 µM): 0.88
- relative viability (NCI-H1437; first compound 0.03162 µM): 0.821
- relative viability (NCI-H1437; first compound 0.1 µM): 0.827
- relative viability (NCI-H1437; first compound 0.3162 µM): 0.948
- relative viability (NCI-H1437; first compound 1 µM): 0.82
- relative viability (NCI-H2342; first compound 0.01 µM): 0.699
- relative viability (NCI-H2342; first compound 0.03162 µM): 0.716
- relative viability (NCI-H2342; first compound 0.1 µM): 0.796
- relative viability (NCI-H2342; first compound 0.3162 µM): 0.708
- relative viability (NCI-H2342; first compound 1 µM): 0.875
- relative viability (NCI-H2087; first compound 0.01 µM): 0.669
- relative viability (NCI-H2087; first compound 0.03162 µM): 0.71
- relative viability (NCI-H2087; first compound 0.1 µM): 0.893
- relative viability (NCI-H2087; first compound 0.3162 µM): 0.886
- relative viability (NCI-H2087; first compound 1 µM): 0.514
- relative viability (LU99A; first compound 0.01 µM): 0.528
- relative viability (LU99A; first compound 0.03162 µM): 0.601
- relative viability (LU99A; first compound 0.1 µM): 0.541
- relative viability (LU99A; first compound 0.3162 µM): 0.529
- relative viability (LU99A; first compound 1 µM): 0.423
- relative viability (NCI-H1975; first compound 0.01 µM): 0.758
- relative viability (NCI-H1975; first compound 0.03162 µM): 0.756
- relative viability (NCI-H1975; first compound 0.1 µM): 0.853
- relative viability (NCI-H1975; first compound 0.3162 µM): 0.78
- relative viability (NCI-H1975; first compound 1 µM): 0.548
- relative viability (HCC-827; first compound 0.01 µM): 0.883
- relative viability (HCC-827; first compound 0.03162 µM): 0.969
- relative viability (HCC-827; first compound 0.1 µM): 0.866
- relative viability (HCC-827; first compound 0.3162 µM): 0.937
- relative viability (HCC-827; first compound 1 µM): 0.674
- relative viability (COR-L 105; first compound 0.01 µM): 0.771
- relative viability (COR-L 105; first compound 0.03162 µM): 0.774
- relative viability (COR-L 105; first compound 0.1 µM): 0.981
- relative viability (COR-L 105; first compound 0.3162 µM): 0.796
- relative viability (COR-L 105; first compound 1 µM): 0.805
- relative viability (EKVX; first compound 0.01 µM): 0.814
- relative viability (EKVX; first compound 0.03162 µM): 0.734
- relative viability (EKVX; first compound 0.1 µM): 0.731
- relative viability (EKVX; first compound 0.3162 µM): 0.704
- relative viability (EKVX; first compound 1 µM): 0.621
- relative viability (NCI-H1666; first compound 0.01 µM): 1.13
- relative viability (NCI-H1666; first compound 0.03162 µM): 1.01
- relative viability (NCI-H1666; first compound 0.1 µM): 1.04
- relative viability (NCI-H1666; first compound 0.3162 µM): 1.1
- relative viability (NCI-H1666; first compound 1 µM): 1.05
- relative viability (LOU-NH91; first compound 0.01 µM): 0.868
- relative viability (LOU-NH91; first compound 0.03162 µM): 0.99
- relative viability (LOU-NH91; first compound 0.1 µM): 1.04
- relative viability (LOU-NH91; first compound 0.3162 µM): 1.08
- relative viability (LOU-NH91; first compound 1 µM): 0.901
